In patent publication US8338435B2, “Substituted pyrido(3,2-D) pyrimidines and pharmaceutical compositions for treating viral infections” (Gilead Sciences, Inc., priority 2006, dated 2012):
pEC50: −log10 of the molar value. Like-named read-outs stand apart in the source and are kept apart here.

Tests used:
HCV replicon = experiment: Anti-HCV replicon assay, EC50 (luciferase luminescence); type: cell-based; details: Hepatitis C virus
Procedure: (§1) The anti-HCV activity of certain pyrido[3,2-d]pyrimidine derivatives of this invention was tested in a human hepatoma Huh-7 cell line harbouring a HCV replicon. The assay comprised the following steps:
(§2) Step 1: Compound Preparation and Serial Dilution
(§3) • 1. for water soluble pyrido[3,2-d]pyrimidine derivatives, a volume of 500 μL of solution in cell media (DMEM, 10% FBS, P/S, L-Glutamine) was prepared with a concentration being twice the concentration of the starting final serial dilution concentration. A volume of 150 μL of the solution was added to the pre-specified wells in column 1 of a 96-well cell culture plate (PerkinElmer, white plate, cat. #6005181, for EC50 assay; black plate, cat. #6005182 for CC50 assay). The rest of the plate, columns 2-12, was filled with 100 μL of cell media. The plate was then placed on a Precision 2000 Workstation to start the serial dilution. Compounds were diluted three times each step from column 1 to column 10. Column 11 was used as a blank control (no compound added). • 2. for pyrido[3,2-d]pyrimidine derivatives requiring DMSO to dissolve, serial dilution is performed in 50% DMSO in a 384-well plate. A solution containing a compound at 100-fold concentration of the starting final serial dilution concentration was prepared in 50% DMSO and added to the pre-specified wells in column 1 of a polypropylene 384-well plate. The plate was then placed on a Precision 2000 Workstation to start the serial dilution. After the serial dilution, a volume of 2 μL of the solution was transferred from the 384-well plate to a 96-well cell culture plate containing 100 μL of cell media on a Biomek FX Workstation. The DMSO concentration in the final assay condition was 0.5% after cells are added to the plate and the total volume in each well is brought to 200 μL. Step 2: to each well of the serial dilution plate prepared above, 100 μL of cell media containing 6000 suspended Huh-7 HCV replicon cells was added with a Multidrop workstation. The plates were incubated for 3 days at 37° C. with 5% CO2. Step 3: Detection: • a) for the EC50 assay, the media in a 96-well cell culture plate was aspirated with a Biotek EL405 plate-washer. A volume of 200 μL of a solution containing a 1:1 mixture of cell-lysis buffer (Promega, Luciferase Cell Culture Lysis 5× Reagent, cat. #E1531) and luciferase substrate solution (Promega, Luciferase Assay, cat. # E4550) was added to each well of the plate with Multidrop. The plate was incubated for 30 minutes at room temperature before the luminescence signal was measured with a TopCount plate-reader. • b) for the CC50 assay, a volume of 100 μL of pre-mixed CellTiter-Glo (Promega, cat. # G7572) solution is added directly to the cell culture in each well of the plate and the luminescence signal is measured with a TopCount plate-reader after 10 minutes of incubation at room temperature.
(§4) Results in the table below are expressed by the following data: • the 50% cytostatic concentration (CC50). i.e. the concentration that results in 50% inhibition of cell growth, and • the 50% effective concentration (EC50), i.e. the concentration that protects 50% of the cell monolayer from virus-induced cythopathic effect.

[1] = CC50 assay (CellTiter-Glo) in the replicon cells; type: cell-based; details: human, Huh-7 HCV replicon cells, 3 days incubation, 50% inhibition of cell growth
Procedure: as §1, §2, §3, §4

[2] = 72 h, human hepatoma Huh-7 cell line harbouring a HCV replicon, 3 days incubation, luciferase readout, read-out: EC50

SMILES | pEC50 (HCV replicon; [2]) | CC50 at 3 days [1] [µM] | pEC50 (HCV replicon; Huh-7, 72 h)
CCCc1nc(N)nc2ccc(-c3ccc(F)cc3)nc12 [Example 2, 6-(4-fluorophenyl)-4-n-propyl-pyrido[3,2-d]pyrimidin-2-yl-amine] | > 6.52 | > 20 | –
CCCc1nc(N)nc2ccc(-c3ccc(NC(C)=O)cc3)nc12 [Example 3, N-[4-(2-amino-4-n-propyl-pyrido[3,2-d]pyrimidin-6-yl)-phenyl]-acetamide] | 6.00 to 6.52 | > 20 | –
CCc1nc(N)nc2ccc(-c3ccc(F)cc3)nc12 [Example 5, 4-ethyl-6-(4-fluoro-phenyl)-pyrido[3,2-d]pyrimidin-2-ylamine] | > 6.52 | < 10 | –
CC(C)Cc1nc(N)nc2ccc(-c3ccc(F)cc3)nc12 [Example 6, 6-(4-fluorophenyl)-4-isobutyl-pyrido[3,2-d]pyrimidin-2-ylamine] | > 6.52 | > 20 | –
C=CCCc1nc(N)nc2ccc(-c3ccc(F)cc3)nc12 [Example 7, 4-but-3-enyl-6-(4-fluorophenyl)-pyrido[3,2-d]pyrimidin-2-ylamine] | – | > 20 | > 6.52
CCc1nc(N)nc2ccc(-c3ccc(N4CCCC4=O)cc3)nc12 [Example 8, 1-[4-(2-amino-4-ethyl-pyrido[3,2-d]pyrimidin-6-yl)-phenyl]-pyrrolidin-2-one] | > 6.52 | > 20 | –
CCc1nc(N)nc2ccc(-c3cnc(N)cn3)nc12 [Example 9, 6-(5-Amino-pyrazin-2-yl)-4-ethyl-pyrido[3,2-d]pyrimidin-2-ylamine] | 6.00 to 6.52 | < 10 | –
Nc1nc(CCC2OCCCO2)c2nc(-c3ccc(F)cc3)ccc2n1 [Example 10, 4-(2-[1,3]dioxan-2-yl-ethyl)-6-(4-fluoro-phenyl)-pyrido[3,2-d]pyrimidin-2-ylamine] | – | > 20 | 6.00 to 6.52
Cc1nc(N)nc2ccc(-c3ccc(F)cc3)nc12 [Example 11, 4-methyl-6-(4-fluorophenyl)-pyrido[3,2-d]pyrimidin-2-ylamine] | > 6.52 | < 10 | –
CC(C)c1nc(N)nc2ccc(-c3ccc(F)cc3)nc12 [Example 12, 6-(4-fluorophenyl)-4-isopropyl-pyrido[3,2-d]pyrimidin-2-ylamine] | > 6.52 | > 20 | –
Nc1nc(C2CC2)c2nc(-c3ccc(F)cc3)ccc2n1 [Example 13, 4-Cyclopropyl-6-(4-fluoro-phenyl)-pyrido[3,2-d]pyrimidin-2-ylamine] | > 6.52 | 10 to 20 | –
Nc1nc(C2CC2)c2nc(-c3ccc(N4CCCC4=O)cc3)ccc2n1 [Example 14, 1-[4-(2-amino-4-cyclopropyl-pyrido[3,2-d]pyrimidin-6-yl)-phenyl]-pyrrolidin-2-one] | > 6.52 | 10 to 20 | –
